# Key:
# mouse liver cells = assay: scRNA-seq of liver after vector injection; assay type: in vivo
# Procedure: (§1) Freshly tissues were washed in Hanks’ balanced salt solution, and cut into small pieces on ice, then digested with collagenase I and IV. After incubated for 30 min at 37°C with continuous shaking. The shredded tissues were filtered the 70 µm nylon mesh, and the obtained cells were centrifuged at 4°C. Red blood lysis buffer added in pelleted cells and shaked up and down 10 times, and then washed three times, finally resuspended in buffer (added 0.04% BSA in PBS). After removing dead cells in suspensions by flow cytometry, the process of single‐cell RNA‐seq following the standard instructions.
# The generation of raw counts matrices was accomplished using CellRanger software, version 6.0.0, referencing the GRCm38 mouse genome. To attain a data set purified of doublets, the Scrublet software was employed. Subsequently, the filtered counts matrices underwent loading into the R software (version 4.0.3), facilitated by the Seurat package. Cells were meticulously curated to exclude those expressing either an excessive (>7000) or an insufficient (<200) number of genes, or presenting high mitochondrial counts (>20%). The raw data were then subjected to normalization using the LogNormalize method. The selection of the top 2000 highly variable genes was carried out with Seurat's FindVariableFeatures function, applying the vst method as the basis for further analysis. To harmonize the batch effects, the IntegrateData function in Seurat was employed. Dimensionality reduction was realized through Principal Component Analysis (PCA), with the leading 30 principal components (PCs) forming the basis for Uniform Manifold Approximation and Projection (UMAP) performance. Cluster identification ensued using Seurat's FindClusters function, setting the resolution at 0.5. Marker gene elucidation was achieved using the differential expression analysis through the Wilcox rank‐sum test, as implemented in the FindAllMarkers function (fold change≥2 and adjusted P≤0.05). Cell clusters underwent annotation against known cell type markers to ascertain their identity. […]
# mouse lung cells = assay: scRNA-seq of lung after vector injection; assay type: in vivo
# Procedure: as §1
# The generation of raw counts matrices was accomplished using CellRanger software, version 6.0.0, referencing the GRCm38 mouse genome. To attain a data set purified of doublets, the Scrublet software was employed. Subsequently, the filtered counts matrices underwent loading into the R software (version 4.0.3), facilitated by the Seurat package. Cells were meticulously curated to exclude those expressing either an excessive (>7000) or an insufficient (<200) number of genes, or presenting high mitochondrial counts (>20%). The raw data were then subjected to normalization using the LogNormalize method. The selection of the top 2000 highly variable genes was carried out with Seurat's FindVariableFeatures function, applying the vst method as the basis for further analysis. To harmonize the batch effects, the IntegrateData function in Seurat was employed. Dimensionality reduction was realized through Principal Component Analysis (PCA), with the leading 30 principal components (PCs) forming the basis for Uniform Manifold Approximation and Projection (UMAP) performance. Cluster identification ensued using Seurat's FindClusters function, setting the resolution at 0.5. Marker gene elucidation was achieved using the differential expression analysis through the Wilcox rank‐sum test, as implemented in the FindAllMarkers function (fold change≥2 and adjusted P≤0.05). Cell clusters underwent annotation against known cell type markers to ascertain their identity. Akin analyses focusing on subclusters of Kupffer cells and Neutrophils were conducted applying a similar methodological framework. Recognition of differentially expressed genes between two groups was facilitated by the Wilcox rank‐sum test via Seurat's FindMarkers function (fold change≥2 and adjusted P≤0.05). Data visualization was executed utilizing the ggplot2 package within the R software. Functional annotations and pathway enrichment analyses, considering the Gene Ontology (GO), were performed with the clusterProfiler package, deeming terms statistically significant at a P≤0.05.
compound,measurement,setting,value
CCCCCCCC/C=C\CCCCCCCC(=O)OCC(C[N+](C)(C)C)OC(=O)CCCCCCC/C=C\CCCCCCCC (stereo not shown) [DOTAP],differentially expressed genes in Kupffer cells,"mouse liver cells; liver, vs untreated (NS), total number of genes",7
same,differentially expressed genes in liver neutrophils,"mouse liver cells; liver, vs untreated, total number of DEGs",45
same,change in cellular composition of liver,mouse liver cells; vs normal control (saline-injected),sharp increase in the number of neutrophils and a decrease in the number of immune cells
same,alveolar macrophages distributed in the Sirpa+ cluster,mouse lung cells; lung scRNA-seq subclustering,73%
same,differentially expressed genes in lung neutrophils,"mouse lung cells; lung, vs untreated, total number of DEGs",18
same,differentially expressed genes in alveolar macrophages,"mouse lung cells; lung, vs untreated, total number of genes",12
same,change in cellular composition of lung,mouse lung cells; vs untreated group,sharp increase in the number of neutrophils and alveolar macrophages and a decrease in the number of immune cells and endothelial cells

# From publication PMC11005685, “Identification of Potent siRNA Delivery Peptides Using Computer Modeling” (Advanced Science, 2024)
